Data published in patent US10045981B2, “Selective kinase inhibitors” (JAKPHARM, LLC, priority 2015, dated 2018).
≈ marks a conversion by molar mass, not a printed value. Where two headings read alike, the source gives them in different places.

Assays:
STAT5 = STAT5 inhibition IC50; format: cell-based
[1] = Solubility in aqueous buffer; format: physicochemical; settings: for solubility: aqueous buffer
EGFR (d752-759) = EGFR (d752-759) (Homo sapiens, UniProt P00533, DEL752-759); assay: Exemplary Kinase Panel Analysis; format: biochemical; settings: 10 concentrations, 3-fold serial dilutions starting at 5 μM, duplicate
TXK = target: T1, TXK (Homo sapiens, UniProt P42681); assay: Exemplary Kinase Panel Analysis; format: biochemical; settings: 10 concentrations, 3-fold serial dilutions starting at 5 μM, duplicate
T1 sequence (P42681 1-527): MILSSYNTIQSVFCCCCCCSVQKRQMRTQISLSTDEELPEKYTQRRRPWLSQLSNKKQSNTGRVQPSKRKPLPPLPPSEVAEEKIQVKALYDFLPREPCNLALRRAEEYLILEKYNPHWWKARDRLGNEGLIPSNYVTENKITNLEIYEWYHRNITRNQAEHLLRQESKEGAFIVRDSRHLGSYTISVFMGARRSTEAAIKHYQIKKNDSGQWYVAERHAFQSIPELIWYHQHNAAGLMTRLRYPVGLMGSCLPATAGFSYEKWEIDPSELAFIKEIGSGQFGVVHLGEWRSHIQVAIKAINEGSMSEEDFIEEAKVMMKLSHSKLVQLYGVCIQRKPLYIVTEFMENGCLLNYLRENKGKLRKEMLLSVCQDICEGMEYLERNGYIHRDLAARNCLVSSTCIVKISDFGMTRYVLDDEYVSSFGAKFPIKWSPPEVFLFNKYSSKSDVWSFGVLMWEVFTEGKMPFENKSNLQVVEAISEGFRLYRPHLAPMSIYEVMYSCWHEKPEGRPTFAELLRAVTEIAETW

EGFR (d746-750/T790M) = EGFR (d746-750/T790M) (Homo sapiens, UniProt P00533, DEL746-750/T790M); assay: Exemplary Kinase Panel Analysis; format: biochemical; settings: 10 concentrations, 3-fold serial dilutions starting at 5 μM, duplicate
CK1g3 = CK1g3 (Homo sapiens, UniProt Q9Y6M4); assay: Exemplary Kinase Panel Analysis; format: biochemical; settings: 10 concentrations, 3-fold serial dilutions starting at 5 μM, duplicate
CYP3A4 [2] = target: T2, CYP3A4 (Homo sapiens, UniProt P08684); assay: CYP3A4 inhibition testosterone LCMS; format: in vitro ADME; settings: read-out: CYP3A4 K50 [uM] testosterone LCMS
CYP3A4 [3] = target: T2, CYP3A4; assay: CYP3A4 inhibition midazolam LCMS; format: in vitro ADME
JAK1 = JAK1 (Homo sapiens, UniProt P23458); assay: JAK1 IC50; format: biochemical
EGFR (L858R, T790M) = EGFR (L858R, T790M) (Homo sapiens, UniProt P00533, L858R/T790M); assay: Exemplary Kinase Panel Analysis; format: biochemical; settings: 10 concentrations, 3-fold serial dilutions starting at 5 μM, duplicate
hERG = target: T3, hERG (Homo sapiens, UniProt Q12809); assay: hERG K+ channel current in HEK293 cells; format: cell-based
T3 construct: expressed in transfected cells; host or cells: HEK293

ITK = target: T4, ITK (Homo sapiens, UniProt Q08881); assay: Exemplary Kinase Panel Analysis; format: biochemical; settings: 10 concentrations, 3-fold serial dilutions starting at 5 μM, duplicate
T4 sequence (Q08881 1-620): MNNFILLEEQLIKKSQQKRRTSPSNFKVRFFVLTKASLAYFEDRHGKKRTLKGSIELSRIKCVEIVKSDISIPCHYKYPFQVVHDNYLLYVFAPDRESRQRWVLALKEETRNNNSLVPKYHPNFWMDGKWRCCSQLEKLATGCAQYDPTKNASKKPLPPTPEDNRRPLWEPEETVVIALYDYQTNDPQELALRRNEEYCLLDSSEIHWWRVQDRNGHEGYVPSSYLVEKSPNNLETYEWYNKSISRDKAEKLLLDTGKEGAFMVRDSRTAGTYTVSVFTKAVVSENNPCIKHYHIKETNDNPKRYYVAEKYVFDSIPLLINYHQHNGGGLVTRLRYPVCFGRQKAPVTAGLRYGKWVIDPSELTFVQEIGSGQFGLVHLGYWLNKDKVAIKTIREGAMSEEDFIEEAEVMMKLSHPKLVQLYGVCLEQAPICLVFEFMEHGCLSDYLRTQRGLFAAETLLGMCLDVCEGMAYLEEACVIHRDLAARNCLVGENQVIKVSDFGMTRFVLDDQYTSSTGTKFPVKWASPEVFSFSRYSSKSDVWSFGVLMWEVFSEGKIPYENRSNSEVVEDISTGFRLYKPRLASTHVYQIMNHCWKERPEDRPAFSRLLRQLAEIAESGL

[4] = Mouse Plasma protein binding; format: in vitro ADME
EGFR (L861Q) = EGFR (L861Q) (Homo sapiens, UniProt P00533, L861Q); assay: Exemplary Kinase Panel Analysis; format: biochemical; settings: 10 concentrations, 3-fold serial dilutions starting at 5 μM, duplicate
EGFR (d746-750) = EGFR (d746-750) (Homo sapiens, UniProt P00533, DEL746-750); assay: Exemplary Kinase Panel Analysis; format: biochemical; settings: 10 concentrations, 3-fold serial dilutions starting at 5 μM, duplicate
EGFR = EGFR (Homo sapiens, UniProt P00533); assay: Exemplary Kinase Panel Analysis; format: biochemical; settings: 10 concentrations, 3-fold serial dilutions starting at 5 μM, duplicate
Method: Kinase Panel: These compounds were tested against 439 kinases. […]. […] The results are presented in Table 2 below, where empty cells indicate no inhibition or compound activity that could not be fit to an IC50 curve.

[5] = Original analysis, read-out: STAT5 IC50 (uM) Original
[6] = Table 3, first session (before /), read-out: STATS inhibition IC50
[7] = Table 3, second session (after /), read-out: STATS inhibition IC50
[8] = re-test, read-out: STAT5 IC50 (uM) re-test
[9] = pH 7.4, aqueous buffer, pH 7.4, Original, read-out: Solubility pH 7.4 (uM) Original
[10] = pH 7.4, aqueous buffer, pH 7.4, Re-test, read-out: Solubility pH 7.4 (uM) Re-test
[11] = pH 7.4, aqueous buffer, pH 7.4, Table 3, first session (before /), read-out: Solubility, pH 7.4
[12] = pH 7.4, aqueous buffer, pH 7.4, Table 3, second session (after /), read-out: Solubility, pH 7.4
[13] = Original analysis, read-out: JAK1 IC50 (uM) Original
[14] = re-test, read-out: JAK1 IC50 (uM) re-test

EGFR (d746-750/T790M), sequence (P00533 with tags, fused parts or gaps DEL746-750/T790M limits assumed): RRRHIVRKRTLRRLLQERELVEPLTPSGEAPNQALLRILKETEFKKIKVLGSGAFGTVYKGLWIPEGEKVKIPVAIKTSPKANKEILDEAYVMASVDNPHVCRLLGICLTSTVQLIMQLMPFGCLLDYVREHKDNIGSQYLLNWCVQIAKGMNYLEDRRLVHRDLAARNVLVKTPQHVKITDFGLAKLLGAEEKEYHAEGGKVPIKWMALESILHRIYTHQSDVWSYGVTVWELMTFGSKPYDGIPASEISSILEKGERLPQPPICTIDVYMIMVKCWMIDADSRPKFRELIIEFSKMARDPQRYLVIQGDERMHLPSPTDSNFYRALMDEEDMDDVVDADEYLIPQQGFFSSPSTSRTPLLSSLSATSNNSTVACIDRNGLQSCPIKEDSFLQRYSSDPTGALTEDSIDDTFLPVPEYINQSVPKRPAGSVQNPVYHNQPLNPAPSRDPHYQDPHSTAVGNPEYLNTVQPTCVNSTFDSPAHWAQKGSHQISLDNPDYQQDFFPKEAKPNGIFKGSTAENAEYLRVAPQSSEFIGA
EGFR (d752-759), sequence (P00533 with tags, fused parts or gaps DEL752-759 limits assumed): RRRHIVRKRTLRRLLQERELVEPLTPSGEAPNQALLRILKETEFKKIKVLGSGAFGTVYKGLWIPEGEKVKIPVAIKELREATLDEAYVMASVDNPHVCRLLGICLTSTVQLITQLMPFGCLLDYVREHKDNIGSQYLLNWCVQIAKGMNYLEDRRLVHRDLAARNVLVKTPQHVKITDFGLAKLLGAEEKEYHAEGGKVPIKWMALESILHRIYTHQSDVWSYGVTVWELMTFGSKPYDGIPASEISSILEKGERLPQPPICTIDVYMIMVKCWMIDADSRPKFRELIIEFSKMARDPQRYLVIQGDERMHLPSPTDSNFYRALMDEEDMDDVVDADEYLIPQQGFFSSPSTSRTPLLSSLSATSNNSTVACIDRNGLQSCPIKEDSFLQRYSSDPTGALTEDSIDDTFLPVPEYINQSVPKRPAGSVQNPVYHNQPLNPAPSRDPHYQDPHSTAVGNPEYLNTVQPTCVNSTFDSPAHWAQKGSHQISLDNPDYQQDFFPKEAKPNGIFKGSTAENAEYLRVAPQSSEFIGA
JAK1, sequence (P23458 whole entry, species assumed): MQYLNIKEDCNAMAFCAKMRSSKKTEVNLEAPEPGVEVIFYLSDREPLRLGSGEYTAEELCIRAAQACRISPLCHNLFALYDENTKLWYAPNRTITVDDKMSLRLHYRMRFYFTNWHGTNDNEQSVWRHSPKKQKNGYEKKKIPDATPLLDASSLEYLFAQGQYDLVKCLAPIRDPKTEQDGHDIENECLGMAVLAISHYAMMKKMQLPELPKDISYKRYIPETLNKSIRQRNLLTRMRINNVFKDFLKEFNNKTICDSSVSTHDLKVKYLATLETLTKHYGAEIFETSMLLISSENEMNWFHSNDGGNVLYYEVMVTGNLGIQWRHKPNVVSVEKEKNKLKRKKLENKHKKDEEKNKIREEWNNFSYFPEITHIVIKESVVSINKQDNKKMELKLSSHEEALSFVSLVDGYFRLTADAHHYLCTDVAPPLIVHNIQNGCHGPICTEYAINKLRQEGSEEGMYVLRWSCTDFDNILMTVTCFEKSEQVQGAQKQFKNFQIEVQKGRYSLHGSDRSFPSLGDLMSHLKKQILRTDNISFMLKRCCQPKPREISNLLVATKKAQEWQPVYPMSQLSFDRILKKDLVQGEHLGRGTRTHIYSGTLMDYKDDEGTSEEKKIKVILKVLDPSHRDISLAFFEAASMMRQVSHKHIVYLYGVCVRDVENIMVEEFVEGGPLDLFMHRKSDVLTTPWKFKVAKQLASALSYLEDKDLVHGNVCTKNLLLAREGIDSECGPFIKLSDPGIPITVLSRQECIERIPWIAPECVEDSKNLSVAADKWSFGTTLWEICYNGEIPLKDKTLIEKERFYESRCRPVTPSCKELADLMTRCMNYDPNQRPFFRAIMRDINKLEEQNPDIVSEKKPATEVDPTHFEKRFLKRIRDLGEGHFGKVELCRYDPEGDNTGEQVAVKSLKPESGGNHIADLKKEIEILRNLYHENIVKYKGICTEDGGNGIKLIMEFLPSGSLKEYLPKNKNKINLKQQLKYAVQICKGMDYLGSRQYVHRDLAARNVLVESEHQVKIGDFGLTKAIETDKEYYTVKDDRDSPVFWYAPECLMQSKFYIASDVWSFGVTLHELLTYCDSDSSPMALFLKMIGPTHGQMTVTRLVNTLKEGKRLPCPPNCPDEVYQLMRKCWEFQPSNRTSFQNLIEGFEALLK
T2 sequence (P08684 whole entry): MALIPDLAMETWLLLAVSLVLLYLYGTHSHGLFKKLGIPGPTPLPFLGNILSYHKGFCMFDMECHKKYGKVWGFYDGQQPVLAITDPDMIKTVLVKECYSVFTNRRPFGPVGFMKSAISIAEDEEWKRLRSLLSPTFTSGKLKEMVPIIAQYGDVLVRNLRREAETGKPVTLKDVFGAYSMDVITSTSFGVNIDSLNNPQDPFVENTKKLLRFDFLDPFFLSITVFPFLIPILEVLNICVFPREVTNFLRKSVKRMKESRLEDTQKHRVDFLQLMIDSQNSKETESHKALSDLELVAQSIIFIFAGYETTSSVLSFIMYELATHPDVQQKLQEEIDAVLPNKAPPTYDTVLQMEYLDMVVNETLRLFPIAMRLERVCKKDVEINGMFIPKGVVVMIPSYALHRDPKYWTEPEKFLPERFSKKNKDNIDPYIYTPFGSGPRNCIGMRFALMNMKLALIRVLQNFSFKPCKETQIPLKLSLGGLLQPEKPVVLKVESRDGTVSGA
CK1g3, sequence (Q9Y6M4 whole entry): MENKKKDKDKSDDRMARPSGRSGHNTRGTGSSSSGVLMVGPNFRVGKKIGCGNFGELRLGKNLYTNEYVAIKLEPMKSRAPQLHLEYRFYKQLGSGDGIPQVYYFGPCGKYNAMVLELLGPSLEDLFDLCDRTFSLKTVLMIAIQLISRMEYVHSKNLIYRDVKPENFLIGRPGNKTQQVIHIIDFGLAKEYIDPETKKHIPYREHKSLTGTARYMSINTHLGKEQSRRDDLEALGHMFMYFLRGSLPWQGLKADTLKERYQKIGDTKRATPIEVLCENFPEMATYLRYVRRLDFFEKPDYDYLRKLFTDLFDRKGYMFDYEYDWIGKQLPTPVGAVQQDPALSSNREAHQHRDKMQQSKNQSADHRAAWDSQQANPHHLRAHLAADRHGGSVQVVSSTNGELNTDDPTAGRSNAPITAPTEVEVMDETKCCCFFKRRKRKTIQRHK
T3 sequence (Q12809 whole entry): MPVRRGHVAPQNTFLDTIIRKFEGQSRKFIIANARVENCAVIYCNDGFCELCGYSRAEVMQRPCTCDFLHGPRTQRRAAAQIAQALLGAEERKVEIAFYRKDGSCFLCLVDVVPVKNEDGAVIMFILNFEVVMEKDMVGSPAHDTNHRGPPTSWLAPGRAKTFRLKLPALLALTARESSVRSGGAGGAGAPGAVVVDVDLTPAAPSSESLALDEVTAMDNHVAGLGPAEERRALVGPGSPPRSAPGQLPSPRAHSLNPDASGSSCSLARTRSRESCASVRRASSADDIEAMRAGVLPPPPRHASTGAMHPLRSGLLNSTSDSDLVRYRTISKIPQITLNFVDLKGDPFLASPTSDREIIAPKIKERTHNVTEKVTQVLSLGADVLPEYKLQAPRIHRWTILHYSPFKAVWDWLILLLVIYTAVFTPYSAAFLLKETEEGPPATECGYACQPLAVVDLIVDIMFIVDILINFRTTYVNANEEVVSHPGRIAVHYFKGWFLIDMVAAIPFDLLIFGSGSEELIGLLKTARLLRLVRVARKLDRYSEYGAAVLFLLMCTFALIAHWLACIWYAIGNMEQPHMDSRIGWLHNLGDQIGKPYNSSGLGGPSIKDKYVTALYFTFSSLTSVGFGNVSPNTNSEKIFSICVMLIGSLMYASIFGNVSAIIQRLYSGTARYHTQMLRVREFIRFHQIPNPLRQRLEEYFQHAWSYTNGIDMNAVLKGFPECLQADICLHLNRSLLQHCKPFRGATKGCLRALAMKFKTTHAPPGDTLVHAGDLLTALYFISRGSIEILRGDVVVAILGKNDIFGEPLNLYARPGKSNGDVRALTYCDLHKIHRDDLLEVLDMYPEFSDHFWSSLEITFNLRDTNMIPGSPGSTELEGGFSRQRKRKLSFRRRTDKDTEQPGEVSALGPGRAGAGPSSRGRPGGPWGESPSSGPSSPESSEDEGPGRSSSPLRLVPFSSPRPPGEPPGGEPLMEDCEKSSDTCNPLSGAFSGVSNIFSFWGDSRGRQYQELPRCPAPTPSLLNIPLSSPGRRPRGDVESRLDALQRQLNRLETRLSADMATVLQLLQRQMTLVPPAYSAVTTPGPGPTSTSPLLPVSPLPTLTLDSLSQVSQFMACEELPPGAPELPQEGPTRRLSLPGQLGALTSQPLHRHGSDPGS
EGFR (d746-750), sequence (P00533 with tags, fused parts or gaps DEL746-750 limits assumed): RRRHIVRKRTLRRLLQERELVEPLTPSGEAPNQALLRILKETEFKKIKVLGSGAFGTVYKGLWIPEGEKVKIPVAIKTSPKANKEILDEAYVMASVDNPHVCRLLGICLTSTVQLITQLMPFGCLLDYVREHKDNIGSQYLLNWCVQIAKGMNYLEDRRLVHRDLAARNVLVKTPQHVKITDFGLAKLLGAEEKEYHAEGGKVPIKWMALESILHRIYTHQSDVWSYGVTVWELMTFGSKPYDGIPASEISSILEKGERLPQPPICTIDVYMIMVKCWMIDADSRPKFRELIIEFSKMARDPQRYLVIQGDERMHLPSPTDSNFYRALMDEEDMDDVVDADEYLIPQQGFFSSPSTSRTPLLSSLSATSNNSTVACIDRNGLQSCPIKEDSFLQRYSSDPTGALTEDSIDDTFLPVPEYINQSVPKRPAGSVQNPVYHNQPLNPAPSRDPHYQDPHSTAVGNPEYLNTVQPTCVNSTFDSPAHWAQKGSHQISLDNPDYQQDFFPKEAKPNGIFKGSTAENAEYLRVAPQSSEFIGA

SMILES | IC50 (STAT5; [5]) [µM] | IC50 (STAT5; [6]) [µM] | IC50 (STAT5; [7]) [µM] | IC50 (STAT5; [8]) [µM] | solubility [1, 9] [µM] | solubility [1, 10] [µM] | solubility [1, 11] [µM] | solubility [1, 12] [µM] | IC50 (EGFR (d752-759)) [nM] | IC50 (TXK) [nM] | IC50 (EGFR (d746-750/T790M)) [nM] | IC50 (CK1g3) [nM] | IC50 (CYP3A4 [2]; first session (before /)) [µM] | IC50 (CYP3A4 [2]; second session (after /)) [µM] | IC50 (CYP3A4 [3]; first session (before /)) [µM] | IC50 (CYP3A4 [3]; second session (after /)) [µM] | IC50 (JAK1; [13]) [µM] | IC50 (JAK1; [14]) [µM] | IC50 (EGFR (L858R, T790M)) [nM] | IC50 (hERG) [µM] | further results
C=CC(=O)Nc1cc(CC(=O)OC)cc(-c2cnc3ccccc3n2)c1 [Compound 2] | 0.8 | 0.8 | 2.9 | 2.9 | 9 (≈ 3.13 µg/mL) | 1 (≈ 0.347 µg/mL) | 9 (≈ 3.13 µg/mL) | 1 (≈ 0.347 µg/mL) | 1030 | 14.9 | 299 | 24.4 | > 100 | > 100 | > 100 | > 100 | ≥ 100 | ≥ 100 | 653 | > 10 | IC50 (ITK): 34.9 nM
C=CC(=O)Nc1cc(CN2CCN(C)C(=O)C2)cc(-c2cnc3ccccc3n2)c1 [Compound 1a] | 1.2 | 1.2 | 2.9 | 2.9 | 85 (≈ 34.1 µg/mL) | 34 (≈ 13.6 µg/mL) | 85 (≈ 34.1 µg/mL) | 34 (≈ 13.6 µg/mL) | 194 | 31.6 | 87.9 | 358 | 81.5 | > 100 | > 100 | > 100 | ≥ 100 | ≥ 100 | 231 | > 10 | fraction unbound [4]: 0.034; IC50 (EGFR (L861Q)): 352 nM; IC50 (EGFR (d746-750)): 345 nM; IC50 (EGFR): 370 nM; IC50 (ITK): 72.1 nM
C=CC(=O)Nc1cc(NS(C)(=O)=O)cc(-c2cnc3ccccc3n2)c1 [Compound 3] | 7.5 | 7.5 | 7.4 | 7.4 | 34 (≈ 12.5 µg/mL) | 3 (≈ 1.11 µg/mL) | 34 (≈ 12.5 µg/mL) | 3 (≈ 1.11 µg/mL) | 3180 | 144 | 996 | 118 | 89.7 | 51 | > 100 | > 100 | ≥ 100 | ≥ 100 | 1120 | > 1 | fraction unbound [4]: 0.147; IC50 (ITK): 278 nM
C=CC(=O)Nc1cc(CN2CCNC(=O)C2)cc(-c2cnc3ccccc3n2)c1 [Compound 1b, N-[3-[(3-oxopiperazin-1-yl)methyl]-5-quinoxalin-2-yl-phenyl] prop-2-enamide] | 5.5 | 5.5 | 8.6 | 8.6 | 88 (≈ 34.1 µg/mL) | 88 (≈ 34.1 µg/mL) | 88 (≈ 34.1 µg/mL) | 88 (≈ 34.1 µg/mL) | 1560 | 16.1 | 560 | 757 | > 100 | > 100 | > 100 | > 100 | ≥ 100 | ≥ 100 | 1320 | > 10 | solubility ([1]; pH 5, aqueous buffer, pH 5.0, read-out: Solubility In Aqueous Buffer pH 5.0): 93 µM (≈ 36 µg/mL); solubility ([1]; pH 6.5, aqueous buffer, pH 6.5, read-out: Solubility In Aqueous Buffer pH 6.5): 108 µM (≈ 41.8 µg/mL); solubility at pH 7.4 (in words) ([1]; pH 7.4): highly and consistently soluble; fraction unbound [4]: 0.059; IC50 (EGFR (L861Q)): 2650 nM; IC50 (EGFR (d746-750)): 2290 nM; IC50 (EGFR): 2860 nM; IC50 (ITK): 68 nM
